# Values joined by “and” are separate entries in the source; they are usually repeats but may differ in a detail not shown here. Equal values may be shown once.
# Tests used:
# Type in all cases: cell-based
# FKBP12^WT-Nluc = target: T1, FKBP12^WT-Nluc (Homo sapiens, UniProt P62942); assay: FKBP12WT-Nluc dual luciferase assay (293FT); settings: 293FT FKBP12WT-Nluc, 24 h
# T1 construct: expressed in transfected cells; host or cells: 293FT
# Method: (§1) Dual luciferase assays were performed using 293FT FKBP12^WT-Nluc and FKBP12^F36V-Nluc cells. In brief, cells were plated at 2000 cells per well in 20 µL of appropriate media in 384-well white culture plates (Corning), allowed to adhere overnight, and 100 nL of compounds were added using a Janus Workstation pin tool (PerkinElmer) for 24 h at 37 °C. To evaluate Fluc signal, plates were brought to room temperature, 20 µL of Dual-Glo Reagent (Promega) was added for 10 min and luminescence was measured on an Envision 2104 plate reader (PerkinElmer). Subsequently, 20 µL of Dual-Glo Stop & Glo Reagent (Promega) was added for 10 min and luminescence was again measured to capture Nluc signal. DMSO-normalized ratios of Nluc/Fluc signal was analyzed and plotted using GraphPad PRISM v8[6].
# FKBP12^F36V-Nluc = target: T2, FKBP12^F36V-Nluc (Homo sapiens, UniProt P62942, F37V); assay: FKBP12F36V-Nluc dual luciferase assay (293FT); settings: 293FT FKBP12F36V-Nluc, 24 h
# T2 construct: expressed in transfected cells; host or cells: 293FT
# Method: as §1
# [1] = test system: PATU-8902 LACZ-FKBP12^F36V clone; assay: Antiproliferation, PATU-8902 LACZ-FKBP12F36V clone, 3D-spheroid (CellTiter-Glo)
# Method: (§2) Cell viability was assayed in 2D-adherent or ultra-low adherent 3D-spheroids using CellTiter-Glo (Promega)[6],[15]. Luminescence was measured on an Envision 2104 plate reader (PerkinElmer) and Fluostar Omega Reader (BMG Labtech) and data was analyzed using GraphPad PRISM v8. Synergy assessments were performed using CellTiter-Glo (Promega) with the following modifications to the protocol described in the ref. [34]. In brief, EWS502 cells were plated at 1000 cells per well in 50 µL of appropriate media in 384-well white culture plates (Corning) allowed to adhere overnight, and 100 nL of compounds were added using a Janus Workstation pin tool (PerkinElmer) for 72 h. Cell viability was measured by addition of 10 µL of CellTiter-glo (Promega), followed by incubation for 15 minutes at room temperature. Luminescence was measured on an Envision 2104 plate reader (PerkinElmer) and data was analyzed using GraphPad PRISM v8.
# [2] = test system: PATU-8902 FKBP12^F36V-KRAS^G12V; KRAS^-/- clone; assay: Antiproliferation, PATU-8902 FKBP12F36V-KRASG12V; KRAS-/- clone, 3D-spheroid (CellTiter-Glo); settings: FKBP12F36V-KRASG12V, KRAS-/-, 3D-spheroid, replicate values
# Method: as §2
# [3] = test system: PATU-8902 LACZ-FKBP12^F36V clone; assay: Antiproliferation, PATU-8902 LACZ-FKBP12F36V clone, 2D-monolayer (CellTiter-Glo)
# Method: as §2
# [4] = test system: PATU-8902 FKBP12^F36V-KRAS^G12V; KRAS^-/- clone; assay: Antiproliferation, PATU-8902 FKBP12F36V-KRASG12V; KRAS-/- clone, 2D-monolayer (CellTiter-Glo)
# Method: as §2
# [5] = log10[compound] (M) -5.30103, single replicates
# [6] = log10[compound] (M) -5.80103, single replicates
# [7] = log10[compound] (M) -6.30103, single replicates
# [8] = log10[compound] (M) -6.80103, single replicates
# [9] = log10[compound] (M) -7.30103, single replicates
# [10] = log10[compound] (M) -7.80103, single replicates
# [11] = log10[compound] (M) -8.30103, single replicates
# [12] = log10[compound] (M) -8.80103, single replicates
# [13] = log10[compound] (M) -9.30103, single replicates
# [14] = log10[compound] (M) -9.80103, single replicates
# [15] = log10[compound] (M) -5.69897, replicate values
# [16] = log10[compound] (M) -6.19897, replicate values
# [17] = log10[compound] (M) -6.69897, replicate values
# [18] = log10[compound] (M) -7.19897, replicate values
# [19] = log10[compound] (M) -7.69897, replicate values
# [20] = log10[compound] (M) -8.19897, replicate values
# [21] = log10[compound] (M) -8.69897, replicate values
# [22] = log10[compound] (M) -9.19897, replicate values
# [23] = log10[compound] (M) -9.69897, replicate values
# [24] = log10[compound] (M) -10.199, replicate values
# T1 sequence (P62942 2-108 limits assumed): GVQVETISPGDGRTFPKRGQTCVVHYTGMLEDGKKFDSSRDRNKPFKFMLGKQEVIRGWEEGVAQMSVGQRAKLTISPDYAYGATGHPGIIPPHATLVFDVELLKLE
# T2 sequence (P62942 2-108 F37V limits assumed): as the sequence (P62942 2-108 limits assumed) above, with F36V counted along it
smiles,measurement,setting,value
CC[C@H](C(=O)N1CCCC[C@H]1C(=O)O[C@H](CCc1ccc(OC)c(OC)c1)c1ccccc1OCC(=O)NCCCCCCOc1cccc2c1C(=O)N(C1CCC(=O)N(C)C1=O)C2=O)c1cc(OC)c(OC)c(OC)c1 (stereo partly drawn) [dTAG-13-NEG],DMSO-normalized ratio of Nluc/Fluc signal,FKBP12^WT-Nluc; [5],67.0666 and 77.8998 and 91.6821 and 102.898
same,DMSO-normalized ratio of Nluc/Fluc signal,FKBP12^WT-Nluc; [6],78.9348 and 111.471 and 83.3725 and 82.7897
same,DMSO-normalized ratio of Nluc/Fluc signal,FKBP12^WT-Nluc; [7],92.3022 and 94.9354 and 69.2394 and 97.8278
same,DMSO-normalized ratio of Nluc/Fluc signal,FKBP12^WT-Nluc; [8],96.006 and 100.644 and 74.9876 and 76.7216
same,DMSO-normalized ratio of Nluc/Fluc signal,FKBP12^WT-Nluc; [9],72.8244 and 95.6646 and 99.6579 and 99.4332
same,DMSO-normalized ratio of Nluc/Fluc signal,FKBP12^WT-Nluc; [10],97.6563 and 103.416 and 111.647 and 107.58
same,DMSO-normalized ratio of Nluc/Fluc signal,FKBP12^WT-Nluc; [11],72.1292 and 95.3278 and 119.638 and 97.0458
same,DMSO-normalized ratio of Nluc/Fluc signal,FKBP12^WT-Nluc; [12],78.9909 and 117.088 and 62.8565 and 76.9455
same,DMSO-normalized ratio of Nluc/Fluc signal,FKBP12^WT-Nluc; [13],119.218 and 128.013 and 101.879 and 100.194
same,DMSO-normalized ratio of Nluc/Fluc signal,FKBP12^WT-Nluc; [14],65.6358 and 99.3457 and 89.3391 and 80.9056
same,DMSO-normalized ratio of Nluc/Fluc signal,FKBP12^F36V-Nluc; [5],107.485 and 132.51 and 146.194 and 142.752
same,DMSO-normalized ratio of Nluc/Fluc signal,FKBP12^F36V-Nluc; [6],129.127 and 105.072 and 162.6 and 136.425
same,DMSO-normalized ratio of Nluc/Fluc signal,FKBP12^F36V-Nluc; [7],79.0888 and 120.578 and 92.5034 and 88.448
same,DMSO-normalized ratio of Nluc/Fluc signal,FKBP12^F36V-Nluc; [8],88.2422 and 88.8583 and 65.8176 and 62.4888
same,DMSO-normalized ratio of Nluc/Fluc signal,FKBP12^F36V-Nluc; [9],134.755 and 99.5368 and 72.6182 and 68.5345
same,DMSO-normalized ratio of Nluc/Fluc signal,FKBP12^F36V-Nluc; [10],97.7941 and 97.6227 and 54.6259 and 65.8847
same,DMSO-normalized ratio of Nluc/Fluc signal,FKBP12^F36V-Nluc; [11],87.9478 and 99.3529 and 98.1344 and 118.766
same,DMSO-normalized ratio of Nluc/Fluc signal,FKBP12^F36V-Nluc; [12],97.4127 and 84.7262 and 88.2477 and 92.5526
same,DMSO-normalized ratio of Nluc/Fluc signal,FKBP12^F36V-Nluc; [13],102.465 and 92.5515 and 101.177 and 79.93
same,DMSO-normalized ratio of Nluc/Fluc signal,FKBP12^F36V-Nluc; [14],77.6015 and 76.7835 and 70.5544 and 62.7116
same,DMSO-normalized antiproliferation,[1]; [15],78.2662 and 80.6112 and 107.636 and 101.511
same,DMSO-normalized antiproliferation,[1]; [16],115.881 and 119.912 and 109.909 and 110.138
same,DMSO-normalized antiproliferation,[1]; [17],134.032 and 111.738 and 124.289 and 133.898
same,DMSO-normalized antiproliferation,[1]; [18],111.46 and 97.6141 and 114.554 and 105.672
same,DMSO-normalized antiproliferation,[1]; [19],122.388 and 133.597 and 106.246 and 144.762
same,DMSO-normalized antiproliferation,[1]; [20],120.684 and 101.999 and 116.106 and 132.987
same,DMSO-normalized antiproliferation,[1]; [21],123.405 and 123.822 and 121.356 and 113.012
same,DMSO-normalized antiproliferation,[1]; [22],108.263 and 109.792 and 100.309 and 162.971
same,DMSO-normalized antiproliferation,[1]; [23],109.842 and 96.251 and 145.82 and 104.761
same,DMSO-normalized antiproliferation,[1]; [24],93.2647 and 77.5801 and 110.815 and 107.241
same,DMSO-normalized antiproliferation,[2]; log10[compound] (M) -5.69897,96.8823 and 98.3914 and 98.1687 and 89.6654
same,DMSO-normalized antiproliferation,[2]; log10[compound] (M) -6.19897,105.48 and 122.576 and 96.899 and 128.406
same,DMSO-normalized antiproliferation,[2]; log10[compound] (M) -6.69897,114.368 and 120.61 and 116.857 and 110.62
same,DMSO-normalized antiproliferation,[2]; log10[compound] (M) -7.19897,96.9046 and 91.4307 and 93.53 and 114.106
same,DMSO-normalized antiproliferation,[2]; log10[compound] (M) -7.69897,103.386 and 104.261 and 89.7267 and 101.721
same,DMSO-normalized antiproliferation,[2]; log10[compound] (M) -8.19897,101.449 and 95.4289 and 118.555 and 115.899
same,DMSO-normalized antiproliferation,[2]; log10[compound] (M) -8.69897,120.176 and 108.237 and 116.378 and 119.908
same,DMSO-normalized antiproliferation,[2]; log10[compound] (M) -9.19897,94.538 and 95.4846 and 105.848 and 104.818
same,DMSO-normalized antiproliferation,[2]; log10[compound] (M) -9.69897,83.4954 and 97.4225 and 109.1 and 101.059
same,DMSO-normalized antiproliferation,[2]; log10[compound] (M) -10.199,96.7821 and 78.8679 and 98.5696 and 88.8079
same,DMSO-normalized antiproliferation,[3]; [15],72.8225 and 72.1303 and 101.197 and 90.2175
same,DMSO-normalized antiproliferation,[3]; [16],131.635 and 91.018 and 75.6842 and 106.809
same,DMSO-normalized antiproliferation,[3]; [17],122.78 and 97.8706 and 155.447 and 120.938
same,DMSO-normalized antiproliferation,[3]; [18],130.888 and 102.417 and 116.74 and 117.366
same,DMSO-normalized antiproliferation,[3]; [19],130.608 and 108.743 and 109.209 and 155.426
same,DMSO-normalized antiproliferation,[3]; [20],126.2 and 112.564 and 135.746 and 163.91
same,DMSO-normalized antiproliferation,[3]; [21],114.853 and 118.921 and 108.594 and 114.639
same,DMSO-normalized antiproliferation,[3]; [22],149.935 and 111.753 and 119.231 and 88.5759
same,DMSO-normalized antiproliferation,[3]; [23],130.478 and 106.921 and 102.092 and 104.28
same,DMSO-normalized antiproliferation,[3]; [24],146.921 and 153.043 and 111.382 and 113.309
same,DMSO-normalized antiproliferation,[4]; [15],50.9912 and 75.2013 and 73.3197 and 81.1372
same,DMSO-normalized antiproliferation,[4]; [16],68.0095 and 98.7671 and 119.504 and 100.111
same,DMSO-normalized antiproliferation,[4]; [17],129.938 and 93.0967 and 131.778 and 96.6262
same,DMSO-normalized antiproliferation,[4]; [18],111.6 and 154.459 and 120.786 and 146.95
same,DMSO-normalized antiproliferation,[4]; [19],99.1211 and 134.569 and 105.935 and 133.398
same,DMSO-normalized antiproliferation,[4]; [20],121.063 and 109.153 and 96.3979 and 125.341
same,DMSO-normalized antiproliferation,[4]; [21],116.243 and 134.344 and 103.587 and 114.006
same,DMSO-normalized antiproliferation,[4]; [22],75.2314 and 130.564 and 98.3202 and 135.021
same,DMSO-normalized antiproliferation,[4]; [23],119.764 and 98.922 and 106.747 and 99.1636
same,DMSO-normalized antiproliferation,[4]; [24],97.9582 and 111.563 and 110.426 and 109.944
